Data: ChEMBL document CHEMBL3259722, “MT1 and MT2 melatonin receptors: ligands, models, oligomers, and therapeutic potential” (J Med Chem, 2014)
One block for each molecule: values may come before it.

Experiments:
[1] = biological target: T1, Melatonin receptor type 1B (Homo sapiens, UniProt P49286); assay: Displacement of [125I]2-iodomelatonin from human MT2 receptor expressed in CHO cells; format: cell-based
T1 sequence (P49286 whole entry): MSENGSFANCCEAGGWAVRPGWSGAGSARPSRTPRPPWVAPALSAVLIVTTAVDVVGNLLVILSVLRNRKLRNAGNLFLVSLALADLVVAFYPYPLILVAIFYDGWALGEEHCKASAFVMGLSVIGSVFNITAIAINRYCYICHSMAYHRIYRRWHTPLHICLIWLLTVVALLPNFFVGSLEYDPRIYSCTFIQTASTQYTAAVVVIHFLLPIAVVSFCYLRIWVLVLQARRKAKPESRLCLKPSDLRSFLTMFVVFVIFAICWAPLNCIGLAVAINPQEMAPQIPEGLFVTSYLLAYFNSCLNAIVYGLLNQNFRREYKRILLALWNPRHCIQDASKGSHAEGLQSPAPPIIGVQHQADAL

[2] = species: Homo sapiens; assay: Selectivity ratio of Ki for human MT2 receptor to Ki for human MT1 receptor
[3] = biological target: T2, Melatonin receptor type 1A (Homo sapiens, UniProt P48039); assay: Displacement of [125I]2-iodomelatonin from human MT1 receptor expressed in CHO cells; format: cell-based
[4] = species: Homo sapiens; assay: Selectivity ratio of Ki for human recombinant MT1 receptor to Ki for human recombinant MT2 receptor
[5] = species: Homo sapiens; assay: Selectivity ratio of Ki for MT1 receptor (unknown origin) to Ki for MT2 receptor (unknown origin)
[6] = biological target: T1, Melatonin receptor type 1B; assay: Binding affinity to MT2 receptor (unknown origin) expressed in HEK cells; format: cell-based, HEK293
[7] = species: Homo sapiens; assay: Selectivity ratio of Ki for MT2 receptor (unknown origin) to Ki for MT1 receptor (unknown origin)
[8] = biological target: T2, Melatonin receptor type 1A; assay: Binding affinity to MT1 receptor (unknown origin) expressed in HEK cells; format: cell-based, HEK293
[9] = biological target: T2, Melatonin receptor type 1A; assay: Agonist activity at MT1 receptor (unknown origin) expressed in mouse NIH3T3 cells assessed as inhibition of forskolin-induced cAMP accumulation; format: functional, cell-based
[10] = biological target: T1, Melatonin receptor type 1B; assay: Agonist activity at MT2 receptor (unknown origin) expressed in mouse NIH3T3 cells assessed as inhibition of forskolin-induced cAMP accumulation; format: functional, cell-based
[11] = biological target: T1, Melatonin receptor type 1B; assay: Displacement of [125I]2-iodomelatonin from human recombinant MT2 receptor expressed in African green monkey COS7 cells; format: cell-based, COS-7
[12] = biological target: T2, Melatonin receptor type 1A; assay: biochemical
[13] = biological target: CYP3A4 (Homo sapiens, UniProt P08684); assay: Half life of the compound assessed as CYP3A4 (unknown origin)-mediated drug metabolism; format: ADME
[14] = biological target: T2, Melatonin receptor type 1A; assay: Antagonist activity at MT1 receptor (unknown origin) assessed as cAMP accumulation; format: functional
[15] = biological target: T1, Melatonin receptor type 1B; assay: Displacement of [125I]2-iodomelatonin from MT2 receptor (unknown origin) expressed in HEK293 cells; format: cell-based
[16] = Partial agonist activity at melatonin receptor in chicken brain membranes assessed as cAMP level; format: cell membranes, Gallus gallus, Membrane
[17] = biological target: T2, Melatonin receptor type 1A; assay: Binding affinity to MT1 receptor (unknown origin) expressed in HEK293 cells; format: cell-based
[18] = biological target: T1, Melatonin receptor type 1B; assay: Binding affinity to MT2 receptor (unknown origin) expressed in HEK293 cells; format: cell-based
[19] = biological target: T1, Melatonin receptor type 1B; assay: Antagonist activity at MT2 receptor (unknown origin) expressed in mouse NIH3T3 cells by [35S]GTPgammaS binding assay; format: functional
[20] = biological target: T2, Melatonin receptor type 1A; assay: Antagonist activity at MT1 receptor (unknown origin) expressed in mouse NIH3T3 cells by [35S]GTPgammaS binding assay; format: functional

T2 sequence (P48039 whole entry): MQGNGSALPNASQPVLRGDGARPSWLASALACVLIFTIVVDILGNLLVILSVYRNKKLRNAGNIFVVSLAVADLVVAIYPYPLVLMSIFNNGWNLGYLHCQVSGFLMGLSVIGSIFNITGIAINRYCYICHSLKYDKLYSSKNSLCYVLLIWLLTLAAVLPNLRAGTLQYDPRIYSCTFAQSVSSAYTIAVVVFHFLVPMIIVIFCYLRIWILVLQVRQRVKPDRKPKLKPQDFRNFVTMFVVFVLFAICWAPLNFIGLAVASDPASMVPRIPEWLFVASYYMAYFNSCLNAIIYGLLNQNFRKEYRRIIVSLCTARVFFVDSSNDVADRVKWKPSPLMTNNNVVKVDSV
Sequence of CYP3A4 (P08684 whole entry): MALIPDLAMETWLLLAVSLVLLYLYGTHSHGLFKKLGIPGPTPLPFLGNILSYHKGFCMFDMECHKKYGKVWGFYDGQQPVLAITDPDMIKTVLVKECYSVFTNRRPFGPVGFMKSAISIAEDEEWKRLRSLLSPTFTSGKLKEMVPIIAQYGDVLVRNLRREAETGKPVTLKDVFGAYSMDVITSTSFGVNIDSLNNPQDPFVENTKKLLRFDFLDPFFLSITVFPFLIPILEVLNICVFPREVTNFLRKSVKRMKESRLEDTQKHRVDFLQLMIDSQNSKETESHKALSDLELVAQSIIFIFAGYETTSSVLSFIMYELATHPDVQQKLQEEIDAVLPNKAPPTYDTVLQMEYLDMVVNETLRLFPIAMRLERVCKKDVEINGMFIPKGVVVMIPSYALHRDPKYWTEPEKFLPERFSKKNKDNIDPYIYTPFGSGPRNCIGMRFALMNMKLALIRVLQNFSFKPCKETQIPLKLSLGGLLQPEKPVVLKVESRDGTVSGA

SMILES: CC(=O)NCCc1c[nH]c2ccc(OCCCc3ccccc3)cc12
Ki [1]: 49 nM
Ratio Ki [2]: 10
Ki [3]: 3.9 nM

SMILES: CCCC(=O)NCCc1c2n(c3ccc(OC)cc13)Cc1ccccc1-2
Ratio Ki [4]: 89

SMILES: COc1ccc2oc(Cc3ccccc3)c(CCNC(C)=O)c2c1
Ratio Ki [5]: 23

SMILES: CCCCCCOc1ccc2c(c1)C(CCNC(C)=O)CCO2 (stereo unspecified)
Ki [6]: 29 nM
Ratio Ki [7]: 25
Ki [1]: 21.4 nM
Ki [8]: 1.2 nM
Ki [3]: 3.4 nM

SMILES: COc1ccc2[nH]c(Cc3ccccc3)c(CCNC(C)=O)c2c1
Ratio Ki [4]: 130

SMILES: CCCC(=O)NCCc1c2n(c3ccc(OC)cc13)CCCc1ccccc1-2
Ratio Ki [4]: 132

SMILES: CCCC(=O)NCCCc1cccc2c1OCCO2
Ki [16]: 2.4 nM

SMILES: COc1cc2c(CCNC(C)=O)c(C)[nH]c2cc1Cl
Ki [11]: 2.2 nM

SMILES: COc1cc2c(cc1OC)C(CC(c1ccccc1)c1ccccc1)N(C(C)=O)CC2 (stereo unspecified)
IC50 [14]: > 1000 nM

SMILES: CCCNC(=O)CCCc1cccc2c1SCCO2
IC50 [17]: 2.3 nM
IC50 [18]: 6.7 nM

SMILES: COc1ccc2c(c1)C(CNC(C)=O)Cc1ccccc1C2 (stereo unspecified)
Ki [19]: 1.3 nM
Ki [20]: 27 nM

Now from value to molecule:

Ki [1]: 87 nM
Ratio Ki [2]: 10
Ki [3]: 7.9 nM
SMILES: CC(=O)NCCc1c[nH]c2ccc(OCCCOc3ccccc3)cc12

Ratio Ki [2]: 35
SMILES: O=C(NCCCc1cccc2nc(CCCCc3ccccc3)oc12)C1CC1

Ki [9]: 0.18 nM
Ki [10]: 0.29 nM
SMILES: CCOC(=O)c1[nH]c2ccc(OC)c3c2c1[C@@H](CNC(C)=O)CC3

Ratio Ki [7]: 122
Ki [1]: 167 nM
Ratio Ki [2]: 54
Ki [3]: 3.1 nM
SMILES: CC(=O)NCCc1cccc2ccc(OCCCCOc3ccc4cccc(CCNC(C)=O)c4c3)cc12

Ki [11]: 3.5 nM
Ratio Ki [4]: 60
Ki [12]: 207 nM
SMILES: COc1cc2[nH]cc(CCNC(C)=O)c2cc1OC

half-life [13]: 20 min
SMILES: COc1ccc2[nH]cc(CCNC(C)=O)c2c1 [MELATONIN]

Ratio Ki [5]: 192
SMILES: C=CCC(=O)NCCc1c(Cc2cccc(OC)c2)oc2ccc(OC)cc12

IC50 [14]: > 1000 nM
SMILES: COc1cc2c(cc1OC)C(CCc1ccccc1)N(C(C)=O)CC2 (stereo unspecified)

Ki [10]: 91.2 nM
SMILES: CC(=O)NCCN(C)c1cccc(OCCCCc2ccccc2)c1

Ki [1]: 246 nM
Ki [3]: 5.2 nM
SMILES: CC(=O)NCCc1cccc2ccc(-c3ccc4cccc(CCNC(C)=O)c4c3)cc12

Ratio Ki [4]: 15
SMILES: CC(=O)NCCc1c(Cc2ccccc2)[nH]c2ccccc12

Ratio Ki [4]: 330
Ki [12]: 501 nM
SMILES: CCC(=O)NC1Cc2ccccc2C(c2ccccc2)C1 (racemic)

Ratio Ki [5]: 123
Ki [15]: 0.33 nM
SMILES: COc1cccc(Cc2oc3ccc(OC)cc3c2CCNC(C)=O)c1

Ki [1]: 149 nM
Ratio Ki [2]: 3
Ki [3]: 3.9 nM
SMILES: CC(=O)NCCc1cccc2ccc(OCCCOc3ccc4cccc(CCNC(C)=O)c4c3)cc12
